Patent US4010191A, “Acyl derivatives of substituted bis-arylalkylamino compounds” (Deutsche Gold- und Silber-Scheideanstalt vormals Roessler, priority 1969, dated 1977)

What was measured:
[1] = test system: detached tracheas obtained from guinea pigs; experiment: Broncholytic action on detached tracheas (histamine spasm); set-up: species or system guinea pig; settings: comparative tests
heart = experiment: Heart and circulatory action, comparative tests with papaverine (Langendorff hearts / dogs); set-up: species or system guinea pig; dog
Experimental: The compounds of the invention were tested in detached guinea pig hearts by the method of Langendorff (Pfluger's Arch. 61 (1895) 291) in respect of the coronary flow, the inotropic action and the heart frequency. Also there were tested in anaesthetized dogs which had been subjected to a thoracostomy.
The significant parameters of the heart and circulatory activity in this case were determined by means of electromagnetic flux measurement and pressure measurement in the interior of the heart ventricle.

COc1ccc(Cc2nccc3cc(OC)c(OC)cc23)cc1OC [papaverine]
duration of action compared to the compounds of the invention [1]: substantially shorter duration | inotropy compared with the compounds of the invention (heart): smaller inotropy | duration of action compared with the compounds of the invention (heart; heart and circulatory action): substantially shorter duration of action
